Legend:
[1] = target: Thioredoxin glutathione reductase from T. crassiceps (TcTGR) (Taenia crassiceps, UniProt A0ABR4QG96); assay: GSSG-reductase activity of TGR (NADPH oxidation at 340 nm); type: biochemical; settings: for Recovered activity (%): B: TGR incubated with COP for 5 min, then thiol 50 μM added, control = 100%; for inhibition at 200 µM: 200 μM of the compound, 3 min incubation (Fig 1a), read-out: maximal inhibition of GSSG reductase activity of TcTGR; for IC50: curcumin degradation products, 3 min incubation in TE buffer, 100 μM NADPH, 67 μM GSSG, read-out: IC50, inhibition of GSSG reductase activity of TcTGR
Method: TGR activity was monitored spectrophotometrically by following the decrease in absorbance at 340 nm (ɛ = 6.22 mM^-1cm^-1) due to its NADPH-dependent ability to reduce GSSG [35, 36]. To determine the inhibitory ability of either curcuminoids, curcumin degradation products or curcumin oxidation products we used the following protocols: a) Curcuminoids. An enzyme aliquot (30 μL) was incubated in the presence of 1 μM NADPH; then, a 1.5 μL aliquot of the above mixture was added to 50 μM of the corresponding curcuminoid solution in TE buffer. At different incubation times, a small aliquot containing both NADPH and GSSG was added to start the reaction in a total volume of 600 μL. The enzyme activity of a reaction mixture prepared in the absence of any curcuminoid was taken as 100% relative activity b) Curcumin degradation products (CDP). The enzyme was treated as above and 1.5 μL aliquot of the mixture was added to the corresponding CDP solution at a selected concentration followed by a 2 min incubation period. Then, both NADPH and GSSG were added to start the reaction. The enzyme activity of a reaction mixture prepared in the absence of any CDP was taken as 100% relative activity. c) Curcumin oxidation products (COP). Curcumin final concentration 50 μM was incubated 15 min in TE buffer. Then, both TGR and the substrates NADPH and GSSG were added to start the reaction. Final concentrations of enzyme, NADPH and GSSG were 13 nM, 100 μM and 70 μM respectively. A unit of enzyme activity is defined as the amount of protein needed to oxidize one μmol NADPH per minute at 25°C.

[2] = Spectrophotometrical analysis of stability (absorbance at 426 nm / absorption spectrum); type: physicochemical
Method: Raúl Enriquez (Instituto de Química, UNAM, México). Curcumin 5 mM was dissolved in DMSO and stored at room temperature. […] The protein concentration of the purified enzyme was determined spectrophotometrically by reading the absorbance at 460 nm (ɛ = 11.3 mM^-1cm^-1) due to its FAD content. The absorption spectrum of curcuminoids (curcumin, DMC and BDMC) and the different curcumin degradation products (CDP) FM, V, VA, F-Ad, 4VG, and FA were recorded in a UV/Vis Beckman DU 730 Spectrophotometer. […] The detection of the curcumin oxidation products (COP) was performed by following the changes in the absorption spectrum immediately after a 100-fold dilution of the curcumin stock solution in TE buffer.

[3] = parameters: method as in PMID 25806475; settings: cited from earlier work

O[C@@H](CS)[C@@H](O)CS (racemic) [DTT, 1,4-Dithio-DL-threitol, reference compound]
Recovered activity (%) [1]: 20.3 ± 1.1%

O=C(/C=C/c1ccc(O)cc1)CC(=O)/C=C/c1ccc(O)cc1 [BDMC, bis-demethoxycurcumin]
inhibition of the enzyme activity ([1]; 50 μM, diluted 30 min in TE buffer before enzyme, 30 min incubation with TGR (Fig 3)): no inhibition was observed
inhibition at 200 µM [1]: 100%

COc1cc(/C=C/C(O)=C/C(=O)/C=C/c2ccc(O)cc2)ccc1O [DMC, demethoxycurcumin]
effect of NADPH on the stability ([2]; 50 μM in TE buffer, 100 μM NADPH, absorbance at 426 nm): no effect
time after dilution at which the final product of oxidative transformation was achieved [3]: 48 h
inhibition at 200 µM [1]: 65%

N[C@@H](CCC(=O)N[C@@H](CS)C(=O)NCC(=O)O)C(=O)O [GSH, reduced glutathione, reference compound]
Recovered activity (%) [1]: 14.7 ± 1.0%

COc1cc(/C=C/C(=O)CC(=O)/C=C/c2ccc(O)c(OC)c2)ccc1O [curcumin, (1E, 6E)-1,7-bis (4-hydroxy-3-methoxyphenyl)-1,6-heptadiene-3,5-dione]
drop in the absorbance at 426 nm ([2]; 50 μM in TE buffer pH 7.8, 30 min incubation, in the absence of NADPH): 82%
diminution in the absorbance at 426 nm ([2]; 50 μM in TE buffer pH 7.8, 30 min incubation, in the presence of 100 μM NADPH): 25%
dilution time at which the maximal inhibitory ability was reached ([1]; 50 μM diluted in TE buffer in the absence of NADPH (Fig 4a)): 15 min
inhibition of the enzyme activity ([1]; 50 μM diluted in TE buffer in the presence of 100 μM NADPH (Fig 4b)): no inhibition
remaining activity at 50 µM ([1]; 50 μM diluted in TE buffer without NADPH, after 4 h incubation (Fig 4a grey line), read-out: activity relative to control): 80%
GSSG reductase activity ([1]; 50 μM, diluted 30 min in TE buffer before enzyme, 1 min incubation with the enzyme (Fig 3a)): no GSSG reductase activity was detected
inhibition at 200 µM [1]: 10%

COc1cc(/C=C/C(=O)O)ccc1O [ferulic acid]
IC50 [1]: 465 µM

COc1cc(/C=C/C=O)ccc1O [ferulic aldehyde]
IC50 [1]: 180 µM
